Results on 16 compounds are retold here after patent publication US20100305068A1, “COMPOUNDS AND METHODS FOR MODULATING PROTEIN TRAFFICKING” (priority 2006, published 2010).

The test system of this assay is pdr5 ypt1^ts cells. Put plainly: microbe, parasite or virus in culture. In kind it is cell-based, yeast. The settings on record: 37° C.; for minimal effective concentration: Saccharomyces cerevisiae, lowest concentration tested giving growth above the 0 μM background, read-out: ypt1-ts MRC (minimal rescue concentration); for minimal effective concentration / optical density, ypt1-ts, 0.39 / optical density, ypt1-ts, 0.78 / optical density, ypt1-ts, 1.56 / optical density, ypt1-ts, 3.13 / optical density, ypt1-ts, 6.25 / optical density, ypt1-ts, 12.5 / optical density, ypt1-ts, 25: Table 2; for optical density, ypt1-ts, 0.39: 0.39 μM compound; for optical density, ypt1-ts, 0.39 / optical density, ypt1-ts, 0.78 / optical density, ypt1-ts, 1.56 / optical density, ypt1-ts, 3.13 / optical density, ypt1-ts, 6.25 / optical density, ypt1-ts, 12.5 / optical density, ypt1-ts, 25: background (0 μM) 0.058; for optical density, ypt1-ts, 0.78: 0.78 μM compound; for optical density, ypt1-ts, 1.56: 1.56 μM compound; for optical density, ypt1-ts, 3.13: 3.13 μM compound; for optical density, ypt1-ts, 6.25: 6.25 μM compound; for optical density, ypt1-ts, 12.5: 12.5 μM compound; for optical density, ypt1-ts, 25: 25 μM compound; for optical density, 3.13 uM / optical density, 12.5 uM / optical density, 50 uM: Table 3, background (0 uM) 0.077; for optical density, 3.13 uM: 3.13 uM compound; for optical density, 12.5 uM: 12.5 uM compound; for optical density, 50 uM: 50 uM compound. The text has this: The activity of the compounds as modulators of protein trafficking may be measured in the assays described herein that evaluate the ability of a compound to rescue an impairment in protein trafficking. For example, the yeast mutant cell line ypt1^ts can be used to identify compounds that rescue cells from the lethal phenotype of a mutant YPT1 allele (see, e.g., Examples and Schmitt et al. (1988) Cell 53:635-47). The activity may be measured, for example, in a whole yeast cell assay using 384-well screening protocol and an optical density measurement.
The yeast mutant cell line ypt1^ts suppresses, in a temperature dependent fashion, the dominant-lethal phenotype of a mutant YPT1 allele (Schmitt et al. (1988) Cell 53:635-47). ypt1^ts cells grow normally at temperatures up to 30° C., but are growth arrested at 37° C. (Id.).
A library of compounds (“The Spectrum Collection”) obtained from Microsource Discovery Systems, Inc. (Gaylordsville, Conn.) was screened to assess the ability of individual compounds to restore growth of ypt1^ts cells. Screening was carried out using ypt1^ts cells containing a mutation in the pdr5 gene (resulting in inactivation of a membrane efflux pump). The effect of the compounds was measured in pdr5 ypt1^ts cells cultured at 37° C.

Turning to `COc1cccc2c1CCC1CC(=O)CC[C@]21C` (some centres unmarked) [14-METHOXY-4,4- BISNOR-8,11,13- PODOCARPATRIEN-3- ONE], the minimal effective concentration was found to be 12.5 µM; the “optical density, ypt1-ts, 0.39” value came to 0.088; the “optical density, ypt1-ts, 0.78” value was 0.074; the “optical density, ypt1-ts, 1.56” value is on record as 0.075. The “optical density, ypt1-ts, 3.13” value is 0.088; the “optical density, ypt1-ts, 6.25” value was determined as 0.096; the “optical density, ypt1-ts, 12.5” value is 0.191; the “optical density, ypt1-ts, 25” value is listed as 0.48.

On to `C=C1C2CC[C@@]3(C)[C@H](c4ccoc4)OC(=O)C[C@]13O[C@H]1CC(=O)C(C)(C)[C@H](C(O)C(=O)OC)[C@@]21C` (some centres unmarked) [6-HYDROXY- […] METHYL ESTER], for which the “optical density, 3.13 uM” value is 0.232; the “optical density, 12.5 uM” value turned out to be 0.561; the “optical density, 50 uM” value was determined as 0.626.

For `CC(=O)O[C@@H]1c2c(ccc3ccc(=O)oc23)OC(C)(C)[C@@H]1OC(=O)CC(C)C` [DIHYDROSAMIDIN], the minimal effective concentration is 12.5 µM; the “optical density, ypt1-ts, 0.39” value is given as 0.091; the “optical density, ypt1-ts, 0.78” value amounted to 0.068; the “optical density, ypt1-ts, 1.56” value is reported as 0.079. Moreover, the “optical density, ypt1-ts, 3.13” value was found to be 0.105; the “optical density, ypt1-ts, 6.25” value amounted to 0.097; the “optical density, ypt1-ts, 12.5” value is given as 0.14; the “optical density, ypt1-ts, 25” value came out at 0.221.

Consider `COc1cccc(/C=C/C(=O)O)c1C(C)C` [2-ISOPROPYL-3- METHOXYCINNAMIC ACID], for which the minimal effective concentration was found to be 12.5 µM; the “optical density, ypt1-ts, 0.39” value worked out at 0.097; the “optical density, ypt1-ts, 0.78” value came out at 0.079; the “optical density, ypt1-ts, 1.56” value is 0.086. In addition, the “optical density, ypt1-ts, 3.13” value was 0.111; the “optical density, ypt1-ts, 6.25” value worked out at 0.123; the “optical density, ypt1-ts, 12.5” value is reported as 0.184; the “optical density, ypt1-ts, 25” value came to 0.397.

Take `Cc1ccc(C)c(OCCCC(C)(C)C(=O)O)c1` [GEMFIBROZIL, reference compound]: the minimal effective concentration stood at 3.13 µM; the “optical density, ypt1-ts, 0.39” value is on record as 0.106; the “optical density, ypt1-ts, 0.78” value was 0.082; the “optical density, ypt1-ts, 1.56” value was determined as 0.1. Moreover, the “optical density, ypt1-ts, 3.13” value is reported as 0.219; the “optical density, ypt1-ts, 6.25” value is 0.442; the “optical density, ypt1-ts, 12.5” value was determined as 0.615; the “optical density, ypt1-ts, 25” value was 0.358.

With `CC1(C)C2CC(=O)O[C@]3(C)C4=CC(=O)O[C@@H](c5ccoc5)[C@]4(C)CCC3[C@@]2(C)C=C[C@H]1O` (some centres unmarked) [DEOXYANDIROBIN- LACTONE], the minimal effective concentration came to 3.13 µM; the “optical density, ypt1-ts, 0.39” value is 0.107; the “optical density, ypt1-ts, 0.78” value was found to be 0.082; the “optical density, ypt1-ts, 1.56” value is recorded as 0.089. For the same compound, the “optical density, ypt1-ts, 3.13” value was 0.137; the “optical density, ypt1-ts, 6.25” value is listed as 0.249; the “optical density, ypt1-ts, 12.5” value was 0.524; the “optical density, ypt1-ts, 25” value was determined as 0.613.

Regarding `COC(=O)C[C@H]1C(C)(C)[C@@H](O)[C@@H]2CC3=C4C=C(OC)O[C@@H](c5ccoc5)[C@]4(C)CCC3[C@]1(C)C2=O` (stereo partly drawn) [3-DEOXO-3beta-HYDRO[…] 16-ENOL ETHER], the minimal effective concentration came out at 3.13 µM; the “optical density, ypt1-ts, 0.39” value is given as 0.102; the “optical density, ypt1-ts, 0.78” value is reported as 0.077; the “optical density, ypt1-ts, 1.56” value is 0.091. The “optical density, ypt1-ts, 3.13” value came to 0.141; the “optical density, ypt1-ts, 6.25” value came to 0.219; the “optical density, ypt1-ts, 12.5” value amounted to 0.583; the “optical density, ypt1-ts, 25” value turned out to be 0.625.

For the compound `COc1ccc2c(c1)OCC(Cc1ccc(OC)c(OC(C)=O)c1)C2=O` (centres unmarked) [DEOXY- SAPPANONE B 7,3′-DI- METHYL ETHER ACETATE], the “optical density, 3.13 uM” value came to 0.137; the “optical density, 12.5 uM” value stood at 0.17; the “optical density, 50 uM” value is given as 0.374.

`CC(=O)O[C@@H]1CC2C(C)(C)C(=O)C=C[C@]2(C)C2CC[C@@]3(C)[C@H](c4ccoc4)OC(=O)[C@H]4O[C@]43[C@@]21C` (some centres unmarked) [GEDUNIN]: the “optical density, 3.13 uM” value is listed as 0.109; the “optical density, 12.5 uM” value is recorded as 0.231; the “optical density, 50 uM” value worked out at 0.183.

With `CCCCC1(COC(=O)CCC(=O)O)C(=O)N(c2ccccc2)N(c2ccccc2)C1=O` [SUXIBUZONE, reference compound], the minimal effective concentration turned out to be 3.13 µM; the “optical density, ypt1-ts, 0.39” value stood at 0.101; the “optical density, ypt1-ts, 0.78” value is listed as 0.078; the “optical density, ypt1-ts, 1.56” value amounted to 0.093. Further, the “optical density, ypt1-ts, 3.13” value is 0.127; the “optical density, ypt1-ts, 6.25” value is 0.173; the “optical density, ypt1-ts, 12.5” value was determined as 0.329; the “optical density, ypt1-ts, 25” value came out at 0.536.

Regarding `CCOP(=S)(OCC)Oc1nc(Cl)c(Cl)cc1Cl` [CHLOR- PYRIFOS], the “optical density, 3.13 uM” value amounted to 0.122; the “optical density, 12.5 uM” value came out at 0.166; the “optical density, 50 uM” value was 0.253.

Turning to `CC(C)N(C(=O)CCl)c1ccccc1` [PROPACHLOR], the minimal effective concentration is 6.25 µM; the “optical density, ypt1-ts, 0.39” value was determined as 0.101; the “optical density, ypt1-ts, 0.78” value is given as 0.085; the “optical density, ypt1-ts, 1.56” value turned out to be 0.098. Also, the “optical density, ypt1-ts, 3.13” value was 0.121; the “optical density, ypt1-ts, 6.25” value turned out to be 0.141; the “optical density, ypt1-ts, 12.5” value is reported as 0.177; the “optical density, ypt1-ts, 25” value is 0.184.

Regarding `COC(=O)C(O)[C@H]1C(C)(C)[C@@H](OC(C)=O)[C@@H]2CC3=C4CC(=O)O[C@@H](c5ccoc5)[C@]4(C)CCC3[C@]1(C)C2=O` (some centres unmarked) [SWIETENOLIDE- 3-ACETATE], the “optical density, 3.13 uM” value worked out at 0.425; the “optical density, 12.5 uM” value was found to be 0.629; the “optical density, 50 uM” value is on record as 0.619.

With `COc1ccc2c(c1)OCC(Cc1ccc(OC)c(O)c1)C2=O` (centres unmarked), the minimal effective concentration came out at 12.5 µM; the “optical density, ypt1-ts, 0.39” value turned out to be 0.099; the “optical density, ypt1-ts, 0.78” value is on record as 0.068; the “optical density, ypt1-ts, 1.56” value amounted to 0.085. In addition, the “optical density, ypt1-ts, 3.13” value is on record as 0.101; the “optical density, ypt1-ts, 6.25” value was 0.125; the “optical density, ypt1-ts, 12.5” value was 0.319; the “optical density, ypt1-ts, 25” value is recorded as 0.62.

For `CC1(C)C(=O)C=C[C@@]2(C)C1C[C@@H](O)[C@]1(C)C2CC[C@@]2(C)[C@H](c3ccoc3)OC(=O)[C@H]3O[C@]321` (some centres unmarked) [DEACETYL- GEDUNIN], the “optical density, 3.13 uM” value was 0.116; the “optical density, 12.5 uM” value was 0.185; the “optical density, 50 uM” value was determined as 0.377.

Take `C=C1CCC2C(CC2(C)C)C(=C)CC/C1=N/O` (centres unmarked) [5- HYDROXYIMINOISOC ARYOPHYLLENE]: the minimal effective concentration was 12.5 µM; the “optical density, ypt1-ts, 0.39” value came out at 0.096; the “optical density, ypt1-ts, 0.78” value stood at 0.077; the “optical density, ypt1-ts, 1.56” value is listed as 0.087. For the same compound, the “optical density, ypt1-ts, 3.13” value was found to be 0.108; the “optical density, ypt1-ts, 6.25” value was found to be 0.117; the “optical density, ypt1-ts, 12.5” value stood at 0.131; the “optical density, ypt1-ts, 25” value amounted to 0.153.
